Literature values in US10905651B1, “Zeinmersome nanocarriers for drug delivery to the liver” (King Abdulaziz University, priority 2020, dated 2021).

Conditions: cited from earlier work

CCCc1nc(C(C)(C)O)c(C(=O)O)n1Cc1ccc(-c2ccccc2-c2nnn[nH]2)cc1 [olmesartan]
oral bioavailability of olmesartan (Kobayashi et al. 2000): 4.5%
volume of distribution (Vd) (following IV administration): 15 to 25 L
